Assay results from article PMC8270270, “Rosin Derivatives as a Platform for the Antiviral Drug Design” (Molecules, 2021).
Values after ≈ are worked out from the molar mass of the structure shown. Read-outs that look alike come from different tables or passages of the source.

Columns and labels:
[1] = tested on: herpes simplex virus type 1 (HSV-1); set-up: method as in PMID 19892441; settings: endpoint titration (EPTT); cited from earlier work
Candida tropicalis = assay: Disco-diffuse method, fungicidal activity; format: cell-based; settings: for zone of inhibition at 1000 µg/mL / zone of inhibition at 5000 µg/mL / zone of inhibition at 10000 µg/mL / zone of inhibition at 25000 µg/mL / zone of inhibition at 50000 µg/mL: Candida tropicalis, read-out: The Zone of Growth Inhibition; for zone of inhibition at 1000 µg/mL / zone of inhibition at 5000 µg/mL / zone of inhibition at 10000 µg/mL / zone of inhibition at 25000 µg/mL / zone of inhibition at 50000 µg/mL / The Zone of Growth Inhibition: 48 h at 32 °C; for Fungicidal activity (in words): 1-50 mg/mL
Method: (§1) The determination of compounds (I, IV, VI–XI) effect concerning microorganisms was carried out using test strains of Escherichia coli, Bacillus subtilis, and Candida tropicalis. They are not only natural inhabitants of natural biocenoses but also a part of human microbiocenosis. Used microorganisms of bacteria were selected as representatives of the Gram-positive and Gram-negative human microbiota. The antibacterial activity of compounds (I, IV, VI–XI) was studied by the disco-diffuse method. The strain culture was transferred sterile from the mown agar into test tubes with 5 mL of nutrient medium to obtain a “night culture” 12–15 h before the experiment. Beef-extract agar (BEA) was used as a nutrient medium for the development of bacterial cells, and Sabouraud’s medium was used for yeast. Bacterial cultures were incubated in a thermostat at 37 °C, and yeast cultures at 32 °C. The melted BEA was poured sterile into Petri dishes (diameter 90 mm) and evenly distributed over the bottom of the dish, covered with a lid, and left on the table until it solidified completely. Next, the dishes with BEA were inoculated with a “lawn” by introducing a strain culture (suspension titer −1–2 × 10^8 CFU/mL) in an amount of 500 µL and evenly distributing it with a sterile spatula. The dishes were left for 60–90 min to dry the culture. Compounds (I, IV, VI–XI) were previously dissolved, and the sequential dilutions were applied to disks. Dimethyl sulfoxide (DMSO) was used as a solvent for the DAA. Water was used as a solvent for their potassium salts. […] This disk was impregnated with a solution of the test compound amounting to 100 μL and incubated in the dark for 24 h at 37 °C (Escherichia coli and Bacillus subtilis) and 48 h at 32 °C (Candida tropicalis). The solution diffuses, forming a concentration gradient of the test compound around the disc. After the incubation period, the inhibition zone or stimulation of microbial growth around the disk was measured in the experimental and control samples. A conclusion was made about the degree (bactericidal) toxicity of compounds. Solvent-treated disks (DMSO) were used as controls. The experiments were performed three times.

Bacillus subtilis = assay: Disco-diffuse method, antibacterial activity; format: cell-based
Method: as §1

Escherichia coli = assay: Disco-diffuse method, antibacterial activity; format: cell-based
Method: as §1

A549 cell culture = assay: Cytotoxicity, colorimetric MTT assay; format: cell-based, human; settings: for Cytotoxicity (in words): A549, MTT assay; for IC50: Homo sapiens, read-out: Determined IC50; for Cell viability (in words): at the working concentrations used to assess antiviral activity
Method: The cytotoxicity of compounds (I–V) was assessed on A549 cell culture using a colorimetric MTT assay. A549 cells were incubated for 24 h at 37 °C, 5% CO2 with solutions of the studied compounds at various concentrations. Next, the cell monolayer was washed, and MTT solution was added in a volume of 0.1 mL at a concentration of […]. After 1 h of MTT contact with the cells, the wells were washed, and the formed formazan crystals were dissolved in 0.1 mL of DMSO. The results were recorded at 560 nm on a CLARIOstar Plus plate photometer (BMG LABTECH, Ortenberg, Germany). The IC50 was calculated using GraphPad Prism 6.0.

[2] = tested on: A/California/07/09 ((A)H1N1pdm09) viral strain; format: cell-based, influenza virus; settings: for Antiviral activity (in words): A549, in vitro, working concentration
[3] = compound concentration 10 mg/mL
[4] = compound concentration 25 mg/mL
[5] = compound concentration 50 mg/mL
[6] = Bacillus subtilis, compound concentration 1 mg/mL, 24 h at 37 °C, read-out: The Zone of Growth Inhibition
[7] = Bacillus subtilis, compound concentration 5 mg/mL, 24 h at 37 °C, read-out: The Zone of Growth Inhibition
[8] = Bacillus subtilis, compound concentration 10 mg/mL, 24 h at 37 °C, read-out: The Zone of Growth Inhibition
[9] = Bacillus subtilis, compound concentration 25 mg/mL, 24 h at 37 °C, read-out: The Zone of Growth Inhibition
[10] = compound concentration 50 mg/mL, 24 h at 37 °C
[11] = Escherichia coli, compound concentration 1 mg/mL, 24 h at 37 °C, read-out: The Zone of Growth Inhibition
[12] = Escherichia coli, compound concentration 5 mg/mL, 24 h at 37 °C, read-out: The Zone of Growth Inhibition
[13] = Escherichia coli, compound concentration 10 mg/mL, 24 h at 37 °C, read-out: The Zone of Growth Inhibition
[14] = Escherichia coli, compound concentration 25 mg/mL, 24 h at 37 °C, read-out: The Zone of Growth Inhibition
[15] = compound concentration 1 mg/mL, 24 h at 37 °C
[16] = compound concentration 5 mg/mL, 24 h at 37 °C
[17] = compound concentration 10 mg/mL, 24 h at 37 °C
[18] = compound concentration 25 mg/mL, 24 h at 37 °C

SMILES	Concentration at which HSV-1 replication was reduced [1]	zone of inhibition at 1000 µg/mL (Candida tropicalis; compound concentration 1 mg/mL) [mm]	zone of inhibition at 5000 µg/mL (Candida tropicalis; compound concentration 5 mg/mL) [mm]	zone of inhibition at 10000 µg/mL (Candida tropicalis; [3]) [mm]	zone of inhibition at 25000 µg/mL (Candida tropicalis; [4]) [mm]	zone of inhibition at 50000 µg/mL (Candida tropicalis; [5]) [mm]	zone of inhibition at 1000 µg/mL (Bacillus subtilis; [6]) [mm]	zone of inhibition at 5000 µg/mL (Bacillus subtilis; [7]) [mm]	zone of inhibition at 10000 µg/mL (Bacillus subtilis; [8]) [mm]	zone of inhibition at 25000 µg/mL (Bacillus subtilis; [9]) [mm]	The Zone of Growth Inhibition (Bacillus subtilis; [10])	zone of inhibition at 1000 µg/mL (Escherichia coli; [11]) [mm]	zone of inhibition at 5000 µg/mL (Escherichia coli; [12]) [mm]	zone of inhibition at 10000 µg/mL (Escherichia coli; [13]) [mm]	zone of inhibition at 25000 µg/mL (Escherichia coli; [14]) [mm]	The Zone of Growth Inhibition (Escherichia coli; [10])	Fungicidal activity (in words) (Candida tropicalis)	Cytotoxicity (in words) (A549 cell culture)	Cell viability (in words) (A549 cell culture)	Antibacterial activity (in words) (Bacillus subtilis; 1-50 mg/mL)	other results
CC(C)c1ccc2c(c1)CC[C@H]1[C@](C)(COC(=O)c3ccccc3)CCC[C@]21C [dehydroabietinol benzoate]	below 100 mg/mL	–	–	–	–	–	–	–	–	–	–	–	–	–	–	–	–	–	–	–	–
CC(C)c1cc2c(cc1Br)C1(C)CCCC(C)(C(=O)O)C1CC2 (stereo not shown) [X, 12-bromodehydroabietic acid]	–	0	0	0	1.1 ± 0.24	1.9 ± 0.16	3.1 ± 0.25	9.5 ± 0.05	9.7 ± 0.04	10.5 ± 0.03	Does not diff	0.9 ± 0.1	2 ± 0.07	7.6 ± 0.03	4.6 ± 0.05	Does not diff	–	–	–	–	MIC (Bacillus subtilis; Bacillus subtilis, from disc diffusion, 1-50 mg/mL, read-out: minimum inhibitory concentration): 1000 µg/mL (≈ 2640 µM); MIC (Escherichia coli; Escherichia coli, from disc diffusion, 1-50 mg/mL, read-out: minimum inhibitory concentration): 1000 µg/mL (≈ 2640 µM)
CC(=O)OC[C@]1(C)CCC[C@]2(C)c3ccc(C(C)C)cc3CC[C@@H]12 [dehydroabietinol acetate]	below 100 mg/mL	–	–	–	–	–	–	–	–	–	–	–	–	–	–	–	–	–	–	–	–
CC(C)c1cc2c(cc1S(=O)(=O)O)C1(C)CCCC(C)(C(=O)O)C1CC2 (stereo not shown) [I, 12-sulfodehydroabietic acid]	–	0	0	0	0	0	0	0	0	0	–	0	0	0	0	–	did not show either antibacterial activity or fungicidal activity	weak toxicity	did not cause a significant decrease in cell viability	did not show either antibacterial activity or fungicidal activity	IC50 (A549 cell culture; A549, 24 h incubation, MTT assay): > 518 µg/mL; zone of inhibition at 50000 µg/mL (Bacillus subtilis; Bacillus subtilis, compound concentration 50 mg/mL, 24 h at 37 °C, read-out: The Zone of Growth Inhibition): 0 mm; Antibacterial activity (in words) (Escherichia coli; 1-50 mg/mL): did not show either antibacterial activity or fungicidal activity; zone of inhibition at 50000 µg/mL (Escherichia coli; Escherichia coli, compound concentration 50 mg/mL, 24 h at 37 °C, read-out: The Zone of Growth Inhibition): 0 mm; Antiviral activity (in words) [2]: did not show antiviral activity
CC(C)c1cc2c(cc1S(=O)(=O)[O-])C1(C)CCCC(C)(C(=O)[O-])C1CC2.[K+].[K+] (stereo not shown) [IV, Potassium 12-sulfodehydroabietate]	–	–	–	–	–	–	–	–	–	–	0 mm	–	–	–	–	0 mm	did not show either antibacterial activity or fungicidal activity	weak toxicity	did not cause a significant decrease in cell viability	did not show either antibacterial activity or fungicidal activity	The Zone of Growth Inhibition (Candida tropicalis; compound concentration 1 mg/mL): 0 mm; The Zone of Growth Inhibition (Candida tropicalis; compound concentration 5 mg/mL): 0 mm; The Zone of Growth Inhibition (Candida tropicalis; [3]): 0 mm; The Zone of Growth Inhibition (Candida tropicalis; [4]): 0 mm; The Zone of Growth Inhibition (Candida tropicalis; [5]): 0 mm; IC50 (A549 cell culture; A549, 24 h): > 431 µg/mL; The Zone of Growth Inhibition (Bacillus subtilis; [15]): 0 mm; The Zone of Growth Inhibition (Bacillus subtilis; [16]): 0 mm; The Zone of Growth Inhibition (Bacillus subtilis; [17]): 0 mm; The Zone of Growth Inhibition (Bacillus subtilis; [18]): 0 mm; Antibacterial activity (in words) (Escherichia coli; 1-50 mg/mL): did not show either antibacterial activity or fungicidal activity; The Zone of Growth Inhibition (Escherichia coli; [15]): 0 mm; The Zone of Growth Inhibition (Escherichia coli; [16]): 0 mm; The Zone of Growth Inhibition (Escherichia coli; [17]): 0 mm; The Zone of Growth Inhibition (Escherichia coli; [18]): 0 mm; Dose-dependent antiviral effect [2]: did not significantly reduce the viral load; Antiviral activity (in words) [2]: did not show antiviral activity
